In patent publication US20100168406A1, “USE OF GINSENOSIDE Rb2 MONOMER IN THE MANUFACTURE OF MEDICAMENTS FOR THROMBOLYSIS” (priority 2006, published 2010):

Assays:
[1] = test system: thrombi; assay: In vitro thrombolytic effect on capillary thrombi (24 h, 37° C.); format: biochemical, Wistar rats
Protocol: Nine female Wistar rats were used. Blood samples were taken from postorbital venous plexus using hard neutral glass capillary, 4 capillaries for each rat and 36 capillaries in total. The capillaries which contained the blood samples were left over night and the thrombi were then removed. The 4 thrombus samples of each rat were placed into test tubes containing 1 ml NS solution, 1000 U urokinase in 1 ml NS solution, 1 mg Rb2 (80%) in 1 ml NS solution and 1 mg Rb2 (98%) in 1 ml NS solution, respectively. All the test tubes were placed into a water bath at a temperature of 37° C. with shaking at an interval of 30 minutes. 24 hours later, the solutions were decanted, the remaining thrombi were weighed and the thrombolysis rate was calculated. Thrombolysis rate=(starting weight of thrombus−remaining weight of thrombus)/starting weight of thrombus×100%

[2] = test system: arteriovenous shunt thrombus in rats; assay: Arteriovenous shunt thrombosis method, in vivo thrombolytic effect; parameters: species or system Winstar rats; conditions: femoral vein injection given twice
Protocol: Arteriovenous shunt thrombosis method was applied in Winstar rats to observe the inhibition of thrombosis in rats. Under intraperitoneal anesthesia with mebumal sodium, a polyethylene tube penetrated by a silk thread was placed between the right common carotid artery and the left external jugular vein, to allow blood flow through the thread for 15 min. Upon formation of a thrombus, the test agents were injected into femoral vein, and again after an interval of 15 min, both of the same dosage. 45 min post administration, the silk thread was removed rapidly and weighed. Subtraction of the weight of silk thread from the total weight yielded the weight of the thrombus (mg). The thrombus was dried in an oven at a temperature of 60° C. for 4 hours, so as to give the dry weight (mg) of the thrombus.

[3] = test system: blood clots; assay: In vitro thrombolytic effect on rat blood clots (6 h, 37° C.); format: biochemical, rats
Protocol: Rats used in the study were anaesthetized by urethane. Blood samples were taken from abdominal aorta, placed in plastic tubes, and were removed after 24 hours of coagulation. The blood clot was semi-blotted with filter paper and cut into pieces. 90 to 120 mg blood clots were accurately weighed and put into test tubes, to which NS, an Rb2 solution of 200 μg/ml, 100 μg/ml, or 50 μg/ml, or a urokinase solution of 50 U/ml, in a volume of 1 ml was added, respectively, and were then placed into a thermostatic horizontal shaking bath at a temperature of 37° C. and with a shaking frequency of 90 times/min for 6 hours. The undissolved blood clots were removed and weighed after semi-blotting with filter paper. The relative thrombolysis rate was calculated. SPSS 10.0 statistical software was used to perform t test among groups.

[4] = test system: KunMing mice; assay: Auricle microcirculation in mice with Isoprel-induced acute myocardial necrosis; format: in vivo; conditions: 40 mg/kg intraperitoneal Day 1-7, Isoprel 7.5 mg/kg sc Day 5 and 6, 30 min after last dose
Protocol: (§1) 20 KunMing mice, 10 male and 10 female, were randomly divided into the control group and the administration group. The control group received intraperitoneal injection of physiological saline from Day 1 to Day 7 and subcutaneous injection of Isoprel at a dosage of 0.3 ml (7.5 mg/kg) on Day 5 and Day 6. The ginsenoside monomer Rb2 administration group received intraperitoneal injection of ginsenoside monomer Rb2 at a dosage of 40 mg/kg for 4 consecutive days; subcutaneous injection of Isoprel at a dosage of 0.3 ml (7.5 mg/kg) followed by intraperitoneal injection of ginsenoside monomer Rb2 at a dosage of 40 mg/kg on Day 5; intraperitoneal injection of ginsenoside monomer Rb2 at a dosage of 40 mg/kg followed by subcutaneous injection of Isoprel on Day 6. On Day 7, 30 min after intraperitoneal injection of ginsenoside monomer Rb2, the auricle microcirculation was determined. The data obtained from the study were subjected to t-test between groups.

[5] = test system: KunMing mice; assay: Degree of cardiomyopathy (HE staining of heart) in Isoprel-induced acute myocardial necrosis; format: in vivo; conditions: 40 mg/kg intraperitoneal, Isoprel-treated mice, of 10 animals
Protocol: as §1
After the determination of auricle microcirculation, animals were sacrificed and heart samples were removed for HE staining for microscopic examination. The samples were classified according to the grading standards for cardiomyopathy.

[6] = test system: mice; assay: Effect of Rb2 (~60%) on auricle microcirculation in mice; format: in vivo; conditions: 120 mg/10 ml/kg intragastric for 3 days, 30 minutes after last administration
Protocol: 20 mice, 10 male and 10 female, were randomly divided into the control group and the administration group. Animals in the administration group received intragastric administration of Rb2 at 120 mg/10 ml/kg for 3 days. Animals in the control group were given water of the same volume. The calibers, flow rate and flow pattern of V3 grade arteriole and venule were determined 30 minutes after the last administration. The data obtained from the study was subjected to t-test between groups.

[7] = test system: Wistar rats; assay: Reperfusion injury after bilateral common carotid artery clamping, morphological examination of cerebral tissue; format: in vivo; conditions: Rb2 purity 90%, 10 mg/kg iv after reperfusion, brains examined 1 hour after administration
Protocol: Male Wistar rats weighing 300±20 g were supplied by the Animal Office of Tianjin Institute of Pharmaceutical Research.
Rb2 was prepared with NS in a ratio of […] for intravenous injection in rats before use.
30 rats were randomly divided into 3 groups with 10 rats in each group. The sham operation group received (iv) physiological saline, the model group received (iv) physiological saline and the Rb2 (with a purity of 90%) group received (iv) 10 mg/kg. All groups were administered through intravenous injection after reperfusion injury.
The rats were weighed at the time of experiment. They were anaesthetized by urethane (lg/kg) through intraperitoneal injection, laid on their back on the operation table, and cut in the middle of the neck. The common carotid arteries on both sides were dissected and clamped using small-sized artery clamps. 2 hours later, the clamps were loosened to restore blood supply, and the animals were given intravenous administration immediately. The rats were decapitated 1 hour after the administration, the brains were removed and placed into a 10% formaldehyde solution for fixation, followed by morphological examination of the cerebral tissue.

Molecule: CC(C)=CCC[C@](C)(O[C@@H]1O[C@H](CO[C@@H]2OC[C@H](O)[C@H](O)[C@H]2O)[C@@H](O)[C@H](O)[C@H]1O)[C@H]1CC[C@]2(C)[C@@H]1[C@H](O)C[C@@H]1[C@@]3(C)CC[C@H](O[C@@H]4O[C@H](CO)[C@@H](O)[C@H](O)[C@H]4O[C@@H]4O[C@H](CO)[C@@H](O)[C@H](O)[C@H]4O)C(C)(C)[C@@H]3CC[C@]12C [Rb2 (98%), ginsenoside Rb2]
- Final weight of thrombus ([1]; 1 mg/ml in NS): 5.5 ± 3.2 mg
- Thrombolysis rate % ([1]; 1 mg/ml in NS): 71.5%

Molecule: CC(C)=CCC[C@](C)(O[C@@H]1O[C@H](CO[C@@H]2OC[C@H](O)[C@H](O)[C@H]2O)[C@@H](O)[C@H](O)[C@H]1O)[C@H]1CC[C@]2(C)[C@@H]1[C@H](O)C[C@@H]1[C@@]3(C)CC[C@H](O[C@@H]4O[C@H](CO)[C@@H](O)[C@H](O)[C@H]4O[C@@H]4O[C@H](CO)[C@@H](O)[C@H](O)[C@H]4O)C(C)(C)[C@@H]3CC[C@]12C [Rb2, ginsenoside Rb2]
- Dry weight of thrombus ([2]; Rb2 purity 93.9%, 2.5 mg/kg): 8.50 ± 1.91 mg
- Inhibition % (dry weight of thrombus) ([2]; Rb2 purity 93.9%, 2.5 mg/kg): 15.59%
- Inhibition % (wet weight of thrombus) ([2]; Rb2 purity 93.9%, 2.5 mg/kg): 8.71%
- Wet weight of thrombus ([2]; Rb2 purity 93.9%, 2.5 mg/kg): 31.75 ± 8.54 mg
- Dry weight of thrombus ([2]; Rb2 purity 93.9%, 5 mg/kg): 6.60 ± 1.35 mg
- Inhibition % (dry weight of thrombus) ([2]; Rb2 purity 93.9%, 5 mg/kg): 34.46%
- Inhibition % (wet weight of thrombus) ([2]; Rb2 purity 93.9%, 5 mg/kg): 34.73%
- Wet weight of thrombus ([2]; Rb2 purity 93.9%, 5 mg/kg): 22.70 ± 4.94 mg
- Dry weight of thrombus ([2]; Rb2 purity 93.9%, 10 mg/kg): 6.87 ± 1.73 mg
- Inhibition % (dry weight of thrombus) ([2]; Rb2 purity 93.9%, 10 mg/kg): 31.72%
- Inhibition % (wet weight of thrombus) ([2]; Rb2 purity 93.9%, 10 mg/kg): 23.43%
- Wet weight of thrombus ([2]; Rb2 purity 93.9%, 10 mg/kg): 26.63 ± 5.04 mg
- Relative thrombolysis % ([3]; 50 μg/ml): 27.4 ± 8.3 %
- Weight of blood clot After lysis ([3]; 50 μg/ml): 78.9 ± 17.8 mg
- Relative thrombolysis % ([3]; 100 μg/ml): 28.0 ± 9.1 %
- Weight of blood clot After lysis ([3]; 100 μg/ml): 81.4 ± 13.4 mg
- Relative thrombolysis % ([3]; 200 μg/ml): 27.1 ± 9.1 %
- Weight of blood clot After lysis ([3]; 200 μg/ml): 81.8 ± 13.4 mg
- Thrombolysis rate % ([1]; 1 mg/ml in NS, listed as Ginsenoside monomer Rb2): ≥ 70%
- Blood flow velocity [4]: 238 ± 22.59 um/s
- Caliber of artery [4]: 39.08 ± 1.80 um
- Caliber of vein [4]: 59.9 ± 3.58 um
- Degree of cardiomyopathy +++, number of animals [5]: 1
- Degree of cardiomyopathy ++, number of animals [5]: 2
- Degree of cardiomyopathy +, number of animals [5]: 3
- Degree of cardiomyopathy −, number of animals [5]: 4
- Input branch [6]: 36.42 ± 0.81[…] um/s
- Output branch [6]: 65.77 ± 3.14 um/s
- Pathological changes of cerebral edema and cerebral ischemia vs model control group [7]: alleviated remarkably

Molecule: Urokinase [reference compound]
- Dry weight of thrombus ([2]; 5000 U (5000 U/kg)): 6.62 ± 1.85 mg
- Inhibition % (dry weight of thrombus) ([2]; 5000 U (5000 U/kg)): 34.26%
- Inhibition % (wet weight of thrombus) ([2]; 5000 U (5000 U/kg)): 25.37%
- Wet weight of thrombus ([2]; 5000 U (5000 U/kg)): 25.37 ± 6.37 mg
- Relative thrombolysis % ([3]; 50 U/ml): 32.7 ± 10.0 %
- Weight of blood clot After lysis ([3]; 50 U/ml): 73.8 ± 11.3 mg
- Final weight of thrombus ([1]; 1000 U/ml in NS): 0 mg
- Thrombolysis rate % ([1]; 1000 U/ml in NS): 100%
